{"source": "patent US20250108100A1", "about": "“C-TERMINAL FRAGMENT OF APOLIPOPROTEIN E AND APPLICATION THEREOF IN INHIBITING y-SECRETASE ACTIVITY” (SYNPHATEC (SHANGHAI) BIOPHARMACEUTICAL TECHNOLOGY CO., LTD., priority 2022, published 2025)", "key": {"wild-type mice": {"test_system": "wild-type mice", "test": "Endogenous Aβ40 in brain of wild-type mice after AAV neuronal expression (ELISA)", "assay_type": "in vivo, mouse", "conditions": "hSyn promoter, vs GFP"}, "[1]": {"test_system": "human APP co-expressed in HEK 293T cells", "test": "α-CTF produced by APP co-expressed in HEK 293T cells (Western blot)", "assay_type": "cell-based", "conditions": "Western blot, vs GFP control", "experimental": "• a) A plasmid expressing the target protein in mammalian cells was constructed, and the protein expression promoter is CAG. • b) The target protein was expressed in HEK 293T cell line. Cells were subcultured one day before transfection, and transfection was performed when the degree of cell adhesion reached 70%-80%. The transfection reagent was lipofectamine2000 (ThermoFisher). • c) 4-6 hours post transfection, the medium were replaced with fresh cell culture medium. • d) 36-48 hours post transfection, the cells were lysed (10% 1M tris-HCl (pH=6.8), 4% SDS, 20% glycerol, 0.01% bromophenol blue), and the protein samples were collected and used for Western blot or stored in a −80° C. freezer. • e) Polyacrylamide gel electrophoresis. Before protein loading, the protein was boiled at 98° C. for 10 min, and then centrifuged at 12000 rpm for 10 min. Electrophoresis: 80V for the upper stacking gel; 120V for the lower separating gel. • f) Protein transfer. The filter paper was soaked in the electrophoresis solution before use, and the PVDF membrane was put in methanol for 10s to activate, and the gel after electrophoresis was taken out from the electrophoresis tank, put in the order of filter paper—PVD membrane—gel-filter paper from bottom to top, and they were put into the transfer instrument, with transferring in constant current at 0.1 A for 70 min. • g) Blocking and antibody incubation: the transferred PVDF membrane was placed in 5% BSA/TBST blocking solution, and blocked on a shaker at room temperature for 1 hour. The primary antibody was used to incubate at 4° C. overnight on a shaker (12-16 h); 1×TBST was used to wash three times, once every 10 minutes; the secondary antibody was used to incubate, shaked at room temperature for 1-2 h; 1×TBST was used to wash three times, once every 10 minutes. • h) Imaging by development: development was performed with ECL chemiluminescence hypersensitive chromogenic reagent.\n(§1) Plasmids were transfected in HEK 293T or N2A cells for 36-48 hours and then lysed in cell lysis buffer [10% 1M tris-HCl (pH=6.8), 4% SDS, 20% glycerol, 0.01% bromophenol blue]. Lysates were shaken at room temperature for 10 min, then boiled for 10 min, and centrifuged at 12,000×g for 10 min. Proteins were run on 8% or 12% Tris-glycine SDS-PAGE and transferred to PVDF membranes (Life Technologies). Samples were incubated overnight at 4° C. with primary antibody diluted in 5% BSA buffer (in 1×TBST). After washing 3 times with 1×TBST, they were incubated with secondary antibody diluted in 5% BSA buffer (in 1×TBST) for 2 hours at room temperature. Finally, after washing 3 times with 1×TBST, the signal was detected by ECL Western blotting substrate (Solarbio, PE0010).\n(§2) Data were analyzed by GraphPad Prism software (v6) using unpaired, paired, or one-sample t-tests. Aβ40 and Aβ42 levels were normalized to the corresponding GFP controls. α-CTF levels were normalized to FL-APP and corresponding GFP controls. All data are represented as mean±SEM. Statistical significance was defined as p<0.05. One, two, three and four stars (*) in the graph indicate p-values <0.05, <0.01, <0.001 and <0.0001, respectively."}, "[2]": {"test_system": "HEK 293T cells expressing APP", "test": "APP-expressing HEK 293T cells co-incubated with culture medium containing secreted ApoE2 or ApoE CT: α-CTF", "assay_type": "cell-based, human", "conditions": "vs GFP control", "experimental": "(§3) • a) A plasmid expressing the target protein in mammalian cells was constructed, and the protein expression promoter is CAG. • b) The target protein was expressed in HEK 293T cell line. Cells were subcultured one day before transfection, and transfection was performed when the degree of cell adhesion reached 70%-80%. The transfection reagent was lipofectamine2000 (ThermoFisher). • c) 4-6 hours post transfection, the medium were replaced with fresh cell culture medium. • d) 36-48 hours post transfection, the cells were lysed (10% 1M tris-HCl (pH=6.8), 4% SDS, 20% glycerol, 0.01% bromophenol blue), and the protein samples were collected and used for Western blot or stored in a −80° C. freezer. • e) Polyacrylamide gel electrophoresis. Before protein loading, the protein was boiled at 98° C. for 10 min, and then centrifuged at 12000 rpm for 10 min. Electrophoresis: 80V for the upper stacking gel; 120V for the lower separating gel. • f) Protein transfer. […]"}, "[3]": {"test_system": "γ-secretase (PS1, PS2) knockout HEK 293T cells", "test": "PS1 KO, PS2 KO and PS1/2 dKO HEK 293T cell lines: α-CTF and Aβ40", "assay_type": "cell-based, human", "conditions": "PS1 and PS2 double knockout HEK 293T cells", "experimental": "as §3"}, "[4]": {"test_system": "human APP and β-secretase co-expressed in HEK 293T cells", "test": "HEK 293T cells co-expressing APP and β-secretase (BACE1): Aβ ELISA and β-CTF Western blot", "assay_type": "cell-based", "conditions": "APP and β-secretase co-expressed, ELISA, vs GFP control", "experimental": "The experiment was performed according to the standard procedure in the ELISA analysis kit of Invitrogen Company. • a) The target protein was expressed in HEK 293T cell line. Cells were subcultured one day before transfection, and transfection was performed when the degree of cell adhesion reached 70%-80%. The transfection reagent was lipofectamine2000 (ThermoFisher). • b) 4-6 hours post transfection, medium were replaced with fresh cell culture medium. • c) 36-48 hours post transfection, the cell culture medium was collected, and then the ELISA process was performed or the cell culture medium was frozen in a −80° C. refrigerator. • d) 50 μl of standard samples and experimental samples were added to each well of the 96-well plate. • e) 50 μl of human-derived Aβ40 or Aβ42 or mouse-derived Aβ40 detection antibody was added to each well of the 96-well plate. • f) The above samples were shaken gently and placed at room temperature for 3 hours. • g) The liquid in the well were removed, and the plate was washed 4 times with 1× wash buffer. • h) 100 μl of the buffer containing 1× anti-Rabbit IgG HRP was added. • i) The plate was shaken gently and placed at room temperature for […]. • j) The liquid in the well were removed, and the well was washed 4 times with 1× wash buffer. • k) 100 μl of Stabilized Chromogen was added to each well, and the plate was placed in the dark for 30 minutes at room temperature. • l) 100 μl of Stop Solution was added to each well. • m) The absorbance at 450 nm was measured with a microplate reader. 2.4 qRT-PCR\n48 hours after transfection of HEK 293T cells and N2A cells, or 4.5 days after lentivirus infection of neurons, media and lysates were collected. Aβ40 and Aβ42 in the culture medium and cell lysates were detected by an Aβ ELISA kit as indicated in the protocol. (Invitrogen Technology; KHB3481 for human Aβ40, KHB3441 for human Aβ42 and KMB3481 for mouse Aβ40).\nas §2"}, "[5]": {"test_system": "APP co-expressed in mouse neuron cell line N2A", "test": "α-CTF produced by APP co-expressed in N2A cells (Western blot)", "assay_type": "cell-based", "conditions": "Western blot, vs GFP control", "experimental": "as §1, §2"}, "[6]": {"test": "Stability of ApoE2 in conditioned culture medium (Western blot)", "assay_type": "physicochemical", "conditions": "37° C.; 48 hours", "experimental": "N=9. […] The original ApoE2-containing culture medium (lane 1), the ApoE2-containing culture medium after incubation with untransfected cells for 48 hours (lane 2), and the ApoE2-containing culture medium separately stored in a 37° C. incubator for 48 hours (lane 3). […] DAPI, nuclear marker. […] MAP2, marker of mature neurons; DAPI, nuclear marker."}}, "note": "“Also recorded” adds a separate entry of the source."}
{"substance": "ApoE2: human apolipoprotein E2, full-length 299 amino acid residues, SEQ ID NO: 12", "values": [{"measurement": "endogenous Aβ40 in the brain", "setting": "wild-type mice", "result": "also reduce endogenous Aβ40 production; also recorded: reduced endogenous Aβ40 in the brain of mice"}, {"measurement": "α-CTF produced by co-expressed APP", "setting": "[1]", "result": "can significantly increase α-CTF; also recorded: significantly increased the α-CTF levels"}, {"measurement": "α-CTF produced by APP in cells co-incubated with protein in culture medium", "setting": "[2]", "result": "does not significantly alter α-CTF levels; also recorded: does not change the α-CTF; also recorded: does not alter the α-CTF"}, {"measurement": "α-CTF in PS1/2 dKO cells", "setting": "[3]", "result": "did not further increase α-CTF levels"}, {"measurement": "production of Aβ40", "setting": "[4]", "result": "significantly reduces production of Aβ40; also recorded: is reduced; also recorded: significantly reduced Aβ40 levels"}, {"measurement": "α-CTF produced by co-expressed APP", "setting": "[5]", "result": "significantly increased the α-CTF levels"}, {"measurement": "stability in conditioned medium", "setting": "[6]", "result": "can exist stably"}]}
